Molecular target: T1, URAT-1 model (Homo sapiens, UniProt Q96S37)
T1 sequence (Q96S37 1-553): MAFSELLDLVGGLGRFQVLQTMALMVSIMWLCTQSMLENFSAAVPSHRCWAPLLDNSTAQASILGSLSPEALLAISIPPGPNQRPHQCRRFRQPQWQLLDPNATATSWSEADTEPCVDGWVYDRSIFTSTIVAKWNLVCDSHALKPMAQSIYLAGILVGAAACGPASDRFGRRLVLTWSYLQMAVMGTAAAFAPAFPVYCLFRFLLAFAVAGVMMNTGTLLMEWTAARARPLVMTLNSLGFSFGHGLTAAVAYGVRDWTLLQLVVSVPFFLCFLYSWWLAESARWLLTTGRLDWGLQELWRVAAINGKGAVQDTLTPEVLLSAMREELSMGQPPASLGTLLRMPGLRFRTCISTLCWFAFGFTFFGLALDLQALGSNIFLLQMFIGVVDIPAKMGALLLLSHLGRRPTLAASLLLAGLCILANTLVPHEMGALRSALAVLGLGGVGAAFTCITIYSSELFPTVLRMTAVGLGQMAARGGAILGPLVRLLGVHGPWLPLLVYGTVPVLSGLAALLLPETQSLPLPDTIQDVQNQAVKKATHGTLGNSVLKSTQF
Experiment: URAT1-model assay, 14C-uric acid transport in HEK293/URAT1-model cells
Assay type: cell-based
Details: 125 μM 14C-uric acid, 10 minutes
Experimental: Transfections of HEK293 cells with a model URAT1 construct was performed using L2000 transfection reagent (Invitrogen) as described by the manufacturer. After 24 h the transfected cells were split into 10 cm tissue culture plates and grown for 1 day after which the medium was replaced with fresh growth medium containing G418 (Gibco) at 0.5 mg/ml final concentration. Drug-resistant colonies were selected after approximately 8 days and then tested for ^14C-uric acid transport activity. The HEK293/URAT1-model cells are plated on Poly-D-Lysine Coated 96-well Plates at a density of 125,000 cells per well.
Cells were grown overnight (20-26 hours) at 37° C. in an incubator. Plates were allowed to come to room temperature and media was washed out with one wash of 250 μl of Wash Buffer (125 mM Na Gluconate, 10 mM Hepes ph 7.3). […] Assay Buffer is 125 mM Sodium Gluconate, 4.8 mM Potassium Gluconate, 1.2 mM Potassium phosphate, monobasic, 1.2 mM magnesium sulfate, 1.3 mM Ca Gluconate, 5.6 mM Glucose, 25 mM HEPES, pH 7.3. Plates were incubated at room temperature for 10 minutes then washed 3 times with 50 μl Wash Buffer and 3 times with 250 μl Wash Buffer. Microscint 20 Scintillation Fluid was added and plates were incubated overnight at room temperature to equilibrate. Plates are then read on the TopCount Plate Reader and an EC50 value generated. […]

CC(C)(Sc1ccncc1-c1ccc(C#N)c2ccccc12)C(=O)O [2-((3-(4-cyanonaphthalen-1-yl)pyridin-4-yl)thio)-2-methylpropanoic acid] was tested, and the EC50 was at most 50 nM.

From US10047050B2, “3,4-di-substituted pyridine compound, methods of using and compositions comprising the same” (ARDEA BIOSCIENCES, INC., priority 2011, dated 2018)
